According to publication PMC4316792, “The dehydrogenase region of the NADPH oxidase component Nox2 acts as a protein disulfide isomerase (PDI) resembling PDIA3 with a role in the binding of the activator protein p67^phox” (Frontiers in Chemistry, 2015):
“Also recorded” adds a separate entry of the source.

Experiments:
NADPH oxidase = system: NADPH oxidase; parameters: method as in 8 sources, one per row (each row's own in cited_ref): ref Shpungin et al., [1989] ||| ref Bellavite et al., [1983]; Gabig and Lefker, [1984] ||| ref Pick et al., [1987] ||| ref Le Cabec and Maridonneau-Parini, [1995] ||| ref Nishida et al., [2005] ||| ...; conditions: cited from earlier work
p67^phox(1–212) = experiment: Effect of H2O2 on binding of p67phox(1–212) to Nox2 peptide 24; conditions: p67^phox(1–212) 1.5 μM, H2O2 10 mM required (0.1, 1, 10 mM tested), 2 h at 4°C; three experiments (Figure 2C)
Procedure: This assay was used to assess the binding of p67^phox, in solution, to surface-attached synthetic Nox2 peptides. The procedure is a modified version of that described before (Morozov et al., [1998]; Dahan et al., [2002]). A brief description of the procedure is presented here. Synthetic Nox2 peptides, with a biotin tag at either the N- or C-terminus, were diluted to a concentration of 1 μM in PBS supplemented with 1% casein. 200 μl/well volumes were added to streptavidin-coated 96 well plates (BioBind Assembly, streptavidin-coated, Cat. No. 95029263, Thermo Fisher Scientific) and the plates incubated for 1 h at room temperature, the well contents being mixed on an orbital shaker. […] Bound peroxidase was quantified as described for the protein—protein binding assay.
Figure 2 Treatment of p67^phox with N-ethylmaleimide (NEM), diamide, or H2O2 reverses the enhanced binding to Nox2 peptides containing an intramolecular disulfide bond. p67^phox(1–526) (1.5 μM) was incubated with NEM (0.1 mM) (A) or diamide (5 mM) (B), for 1 h at room temperature. p67^phox(1–212) (1.5 μM) was exposed to H2O2 (0.1, 1, or 10 mM) for 2 h at 4°C (C). […] The binding of treated and untreated p67^phox, in solution, to surface-attached Nox2 peptide 24 (357–371), with an N-terminal biotin tag, was measured. […]

Nox4 = system: Nox4; parameters: method as in Serrander et al., [2007]; conditions: ref Serrander et al., [2007]; cited from earlier work
[1] = target: NADPH oxidase (macrophage membrane liposomes, cytochrome b558) (Cavia porcellus, UniProt H0UXC6); assay type: biochemical, guinea pig
[2] = system: NADPH oxidase in intact phagocytes / neutrophils; parameters: method as in 3 sources, one per row (each row's own in cited_ref): ref Cohen and Chovaniec, [1978]; Yamashita et al., [1984] ||| ref Le Cabec and Maridonneau-Parini, [1995] ||| ref Tsunawaki et al., [2004]; conditions: cited from earlier work
PDIA3 = system: PDIA3; parameters: method as in Jasuja et al., [2012]; conditions: ref Jasuja et al., [2012]; cited from earlier work
PDIA1 = conditions: ref Xu et al., [2012]; cited from earlier work
Text: Isomerization by PDI also requires the b′ domain (Ellgaard and Ruddock, [2005]) and, thus, an interact ...

PDI = system: PDI; parameters: method as in 2 sources, one per row (each row's own in cited_ref): ref Gallina et al., [2002]; Raturi et al., [2005] ||| ref Dickerhof et al., [2011]; conditions: ref Dickerhof et al., [2011]; cited from earlier work

For `OO` [H2O2], the “effect of exposure of phagocyte membranes on oxidase assembly” value (NADPH oxidase; without effect on the assembled complex, ref Ostuni et al., [2010]) is listed as “inhibits oxidase assembly” and the “effect of H2O2 treatment of p67phox on binding to peptide 24 in the disulfide form” value (p67^phox(1–212)) is listed as “markedly reduced”.
For `CN1C(=O)[C@]23CC4=CC=C[C@H](O)[C@H]4N2C(=O)[C@@]1(CO)SS3` [gliotoxin], the “inhibition of oxidase activation in vitro” value (NADPH oxidase) is given as “marked inhibitory effect; also recorded: inhibit oxidase activation”, the “effect on Nox4” value (Nox4) is given as “did not affect” and the “IC50, NADPH oxidase activation” value [1] is given as “could not be determined”. The “inhibition of oxidase activation, in words” value (from here on “inhibition … in words”) [1] was “poor inhibitor” and the “inhibition of oxidase activation in neutrophils” value [2] was “inhibit oxidase activation”.
For `C[C@@H]1O[C@@H](OC[C@H]2O[C@@H](Oc3c(-c4ccc(O)c(O)c4)oc4cc(O)cc(O)c4c3=O)[C@H](O)[C@@H](O)[C@@H]2O)[C@H](O)[C@H](O)[C@H]1O` [rutin], the “inhibitory effect on PDIA3” value (PDIA3) is given as “lack an inhibitory effect” and the “inhibition … in words” value [1] is given as “Lack of an inhibitory effect”.
For PACMA 31, the “inhibition … in words” value [1] is listed as “Lack of an inhibitory effect” and the “specificity for PDIA1” value (PDIA1) is listed as “exquisite specificity”.
In the case of bacitracin A, the “inhibitory potency on PDI” value (PDI) is given as “low inhibitory potency”.
